# ± gives the standard deviation of the averaged measurements.
# Columns and labels:
# Assay in all cases: level (log10 ratio to DMSO vehicle control); higher = higher biomarker level / cell amount than vehicle control
# [1] = compound: O=C(O)C(F)(OC(F)(F)C(F)(F)C(F)(F)F)C(F)(F)F [Ammonium perfluoro-2-methyl-3-oxahexanoate] (in Water)
# Protocol: (§1)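 BioMAP Diversity Plus panel of 12 human primary cell co-culture systems (3C, 4H, LPS, SAg, BT, BF4T, BE3C, CASM3C, HDF3CGF, KF3CT, MyoF, Mphg). Compounds were added 1 h before stimulation and left for 24 h (MyoF 48 h; BT 72 h for soluble read-outs or 6 d for IgG). Biomarkers were read by ELISA, cytotoxicity by SRB, PBMC viability and proliferation by Alamar Blue. Each well value was divided by the mean of 8 DMSO control wells on the same plate and log10 transformed; duplicate blinded samples were tested at 4 concentrations.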
# [2] = compound: O=S(=O)(O)CCC(F)(F)C(F)(F)C(F)(F)C(F)(F)C(F)(F)C(F)(F)C(F)(F)C(F)(F)F [8:2 Fluorotelomer sulfonic acid] (in DMSO)
# Protocol: as §1
# [3] = compound: C[C@@H]1C[C@H]2[C@@H]3CCC4=CC(=O)C=C[C@]4(C)[C@@]3(F)[C@@H](O)C[C@]2(C)[C@@]1(O)C(=O)COP(=O)(O)O [Dexamethasone sodium phosphate] (in DMSO)
# Protocol: as §1
# [4] = compound: O=S(=O)(O)C(F)(F)C(F)(F)C(F)(F)C(F)(F)C(F)(F)C(F)(F)C(F)(F)F [Perfluoroheptanesulfonic acid] (in DMSO)
# Protocol: as §1
# [5] = compound: OCC(F)(F)OC(F)(F)C(F)(F)OC(F)(F)C(F)(F)OC(F)(F)CO [1H,1H,11H,11H-Perfluorotetraethylene glycol] (in DMSO)
# Protocol: as §1
# [6] = compound: O=C(O)C(F)(F)C(F)(F)C(F)(F)C(F)(F)C(=O)O [Octafluoroadipic acid] (in DMSO)
# Protocol: as §1
Test System,level (log10) ([1]; 6700 nM),level (log10) ([1]; 20000 nM),level (log10) ([1]; 60000 nM),level (log10) ([2]; 6700 nM),level (log10) ([2]; 20000 nM),level (log10) ([2]; 60000 nM),level (log10) ([3]; 1500 nM),level (log10) ([3]; 4400 nM),level (log10) ([3]; 13000 nM),level (log10) ([3]; 40000 nM),level (log10) ([4]; 1500 nM),level (log10) ([4]; 4400 nM),level (log10) ([4]; 13000 nM),level (log10) ([4]; 40000 nM),level (log10) ([5]; 6700 nM),level (log10) ([5]; 20000 nM),level (log10) ([5]; 60000 nM),level (log10) ([6]; 6700 nM),level (log10) ([6]; 20000 nM),level (log10) ([6]; 60000 nM)
HDF3CGF:Proliferation 72hr,0.0575 ± 0.057,0.0635 ± 0.066,-0.0255 ± 0.056,0.0275 ± 0.044,0.0785 ± 0.06,0.107 ± 0.0014,0.0165 ± 0.011,-0.0255 ± 0.047,0.0645 ± 0.015,0.095 ± 0.064,-0.042 ± 0.088,-0.02 ± 0.031,0.076 ± 0.021,0.107 ± 0.0042,-0.125 ± 0.1,-0.178 ± 0.12,-0.358 ± 0.064,-0.036 ± 0.0042,0.024 ± 0.047,0.013 ± 0.017
HDF3CGF:SRB,-0.033 ± 0.02,-0.0325 ± 0.0021,-0.0175 ± 0.011,-0.044 ± 0.064,-0.017 ± 0.1,0.168 ± 0.037,0.0165 ± 0.0064,0.0285 ± 0.025,0.0515 ± 0.03,0.0415 ± 0.07,-0.042 ± 0.028,-0.045 ± 0.011,-0.0065 ± 0.015,0.035 ± 0.1,-0.0225 ± 0.043,-0.023 ± 0.1,-0.0555 ± 0.077,-0.033 ± 0.023,0.0135 ± 0.037,-0.0005 ± 0.042
HDF3CGF:TIMP-1,0.025 ± 0.0028,0.014 ± 0.024,-0.0135 ± 0.0064,0.0375 ± 0.0064,0.0435 ± 0.037,-0.0365 ± 0.077,-0.0755 ± 0.04,-0.0735 ± 0.053,-0.112 ± 0.07,-0.175 ± 0.081,-0.004 ± 0.013,-0.001 ± 0.071,-0.002 ± 0.045,0.012 ± 0.1,-0.023 ± 0.089,0.0015 ± 0.11,-0.073 ± 0.092,-0.0055 ± 0.03,0.022 ± 0.059,0.023 ± 0.055
HDF3CGF:TIMP-2,0.0405 ± 0.07,0.0435 ± 0.013,-0.0185 ± 0.079,-0.003 ± 0.016,-0.023 ± 0.016,-0.0475 ± 0.022,0.0475 ± 0.028,0.062 ± 0.081,0.061 ± 0.065,0.0585 ± 0.0021,-0.0185 ± 0.0064,-0.0395 ± 0.029,-0.0115 ± 0.028,-0.045 ± 0.0014,-0.0285 ± 0.011,-0.046 ± 0.11,-0.121 ± 0.07,0.007 ± 0.0085,0.02 ± 0.023,0.0055 ± 0.0078
KF3CT:CCL2/MCP-1,0.086 ± 0.0057,0.088 ± 0.023,0.0775 ± 0.018,-0.0135 ± 0.005,-0.0585 ± 0.029,-0.0475 ± 0.011,-0.0015 ± 0.08,-0.0565 ± 0.049,-0.0105 ± 0.0035,-0.033 ± 0.016,-0.0115 ± 0.022,-0.011 ± 0.011,0.0015 ± 0.0021,0.0125 ± 0.022,-0.025 ± 0.024,-0.044 ± 0.024,-0.005 ± 0.0042,-0.0165 ± 0.043,-0.0265 ± 0.00071,0.0285 ± 0.026
KF3CT:CD54/ICAM-1,0.022 ± 0.0099,0.029 ± 0.0071,0.017 ± 0.0057,-0.026 ± 0.02,-0.0495 ± 0.018,-0.0515 ± 0.005,-0.0125 ± 0.0078,0.01 ± 0.018,-0.012 ± 0.011,-0.003 ± 0.013,-0.013 ± 0.0085,0.001 ± 0.0099,-0.0085 ± 0.0078,0.0005 ± 0.0078,-0.016 ± 0.0085,-0.008 ± 0.02,-0.006 ± 0.035,-0.0045 ± 0.0035,-0.0105 ± 0.0078,-0.009 ± 0.018
KF3CT:CXCL8/IL-8,0.0175 ± 0.036,0.0135 ± 0.00071,0.0165 ± 0.0092,0.016 ± 0.038,-0.03 ± 0.023,-0.131 ± 0.036,-0.044 ± 0.05,-0.05 ± 0.02,-0.045 ± 0.021,-0.045 ± 0.0028,0.001 ± 0.014,-0.0095 ± 0.03,0 ± 0.03,0.0065 ± 0.022,-0.0085 ± 0.022,-0.0255 ± 0.021,-0.0125 ± 0.011,-0.0015 ± 0.015,0.0105 ± 0.0092,0.012 ± 0.017
KF3CT:CXCL9/MIG,-0.007 ± 0.011,0.0025 ± 0.00071,0.0005 ± 0.0021,0.005 ± 0.017,0.003 ± 0.0099,0.01 ± 0.0057,-0.008 ± 0.024,0.002 ± 0.0014,-0.0075 ± 0.0021,-0.01 ± 0.0014,-0.005 ± 0.0071,-0.006 ± 0.0099,-0.005 ± 0.0028,0.014 ± 0.0042,-0.006 ± 0.031,-0.001 ± 0.013,-0.013 ± 0.018,0.003 ± 0.014,0.0075 ± 0.016,0.0155 ± 0.0021
KF3CT:CXCL10/IP-10,-0.017 ± 0.0085,0.004 ± 0.0057,0.005 ± 0.0042,-0.015 ± 0.0028,-0.044 ± 0.0042,-0.0495 ± 0.00071,0.0015 ± 0.0021,0.01 ± 0.0071,0.005,0.0055 ± 0.0064,0.006 ± 0.0014,-0.0045 ± 0.00071,-0.005 ± 0.0042,-0.014 ± 0.0028,-0.0035 ± 0.018,-0.0065 ± 0.0064,-0.027 ± 0.016,0 ± 0.0028,-0.001 ± 0.0028,-0.001 ± 0.014
KF3CT:IL-1alpha,-0.001 ± 0.0071,0.011 ± 0.0014,-0.0355 ± 0.044,-0.041 ± 0.027,-0.137 ± 0.033,-0.0655 ± 0.046,-0.036 ± 0.018,-0.035 ± 0.0057,-0.0305 ± 0.00071,-0.051 ± 0.044,-0.0015 ± 0.0035,0.013 ± 0.0071,0 ± 0.0028,0.0095 ± 0.013,0.009 ± 0.018,0.003 ± 0.037,0.029 ± 0.034,-0.005 ± 0.013,-0.0245 ± 0.011,0.004 ± 0.02
KF3CT:MMP-9,-0.008 ± 0.011,0.0415 ± 0.026,0.0695 ± 0.0035,-0.009 ± 0.0014,0.0165 ± 0.0078,-0.0335 ± 0.018,-0.0065 ± 0.00071,-0.002,-0.023 ± 0.014,-0.0175 ± 0.013,0.0045 ± 0.025,-0.002 ± 0.0042,-0.01 ± 0.0042,0.0345 ± 0.013,0.0225 ± 0.021,0.062 ± 0.03,0.0725 ± 0.0078,-0.0065 ± 0.005,0.0085 ± 0.015,0.0175 ± 0.015
KF3CT:PAI-I,-0.0455 ± 0.012,-0.0695 ± 0.0078,-0.054 ± 0.02,-0.0065 ± 0.022,-0.029 ± 0.014,-0.0255 ± 0.019,0.0055 ± 0.0021,0.0235 ± 0.0092,0.002 ± 0.025,0.006,0.001 ± 0.028,0.002 ± 0.035,-0.01 ± 0.034,-0.034 ± 0.0099,-0.003 ± 0.02,-0.0115 ± 0.0064,-0.033 ± 0.0042,-0.0135 ± 0.0092,-0.0135 ± 0.011,-0.002 ± 0.017
KF3CT:SRB,-0.004,-0.005 ± 0.0014,-0.0015 ± 0.005,-0.008 ± 0.0014,-0.0145 ± 0.0021,-0.004 ± 0.0071,-0.0025 ± 0.00071,-0.0035 ± 0.0035,-0.0005 ± 0.005,0.0055 ± 0.012,0.0015 ± 0.005,-0.0015 ± 0.0064,-0.0005 ± 0.00071,-0.0005 ± 0.005,-0.003 ± 0.014,0.003 ± 0.0071,-0.012 ± 0.013,-0.0065 ± 0.005,0.003 ± 0.013,0.001 ± 0.018

# — the supplement of paper PMC10331698
